Entries after “also recorded” stand apart in the source; their conditions may differ.
Key:
[1] = system: spontaneous hypertensive heart failure (SHHF) rats; assay: Transthoracic echocardiography in SHHF rats; format: in vivo, rat; details: treatment end versus treatment start, FIG. 4
Procedure: (§1) Forty to forty-two week old male lean spontaneous hypertensive heart failure (SHHF) rats (originally obtained from Charles River, Boston, USA) were used. Animals were housed at the animal facilities of the University of Maastricht with a 12-hour light/dark cycle and had free access to standard rat chow and tap-water. Experiments were performed according to institutional guidelines and conformed to the Guide for the Care and Use of Laboratory Animals published by the US National Institutes of Health (NIH Publication No. 85-23, revised 1996).
(§2) Animals were randomly assigned to treatment groups (n=9 per group). Total treatment time was 4 weeks for all animals. […]
At the start and end of the treatment, transthoracic echocardiography was performed under isoflurane anesthesia in part of the rats (5-7 per group) using the SONOS 5500 echocardiographic system equipped with a 15-MHz linear-array transducer (Philips Medical Systems Corp., Netherlands). […] The 2-dimensional parasternal long- and short-axis view of the left ventricle and the parasternal short axis M-mode tracings were recorded.
Measurements and calculations performed are the following: percent LV fractional shortening (FS) was calculated as follows: […], where LVIDd and LVIDs are end-diastolic and end-systolic left ventricle internal dimensions, respectively. […]

[2] = Pharmacokinetic study in normal Wistar rats (IPC vs IV infusion, corticosterone levels by HPLC); format: in vivo, Wistar rat; details: local (intrapericardial) administration versus systemic (IV) administration of the same amount of drug; 4 weeks infusion; FIG. 2
Procedure: Normal Wistar rats were used for this Example. Animals were housed at the animal facilities of the University of Maastricht with a 12-hour light/dark cycle and had free access to standard rat chow and tap-water. Experiments were performed according to institutional guidelines and conformed to the Guide for the Care and Use of Laboratory Animals published by the US National Institutes of Health (NIH Publication No. 85-23, revised 1996).
The rats underwent a surgical procedure to install pericardial and intravenous catheters and minipumps. Construction of the pericardial catheters and the procedure to install the catheter into the pericardial space were conducted as described by Hermans, which has been discussed above.
Briefly, the pericardial catheters consisted of silicone tubing (internal diameter: 0.51 mm; external diameter 0.94 mm, Degania Silicone, Degania Bet, Israel), which, by assembling its endings with a polyolefin shrinking sleeve (Farnell Compounds, Maarssen, the Netherlands), was shaped as a loop (length appr. 2 cm, width appr. 1 cm). Silicone glue was applied in the middle of the loop, to create two separate chambers (one used for fluid injection, the second closed, i.e. connected to a closed ending). The fluid infusion chamber was provided with holes by use of a 25-gauge perforator. […]

[3] = system: spontaneous hypertensive heart failure (SHHF) rats; assay: Left ventricular collagen by Picro Sirius Red staining in SHHF rats; format: in vivo, rat; details: 6 or 60 micrograms/day IPC or IV, 4 weeks, FIG. 12
Procedure: as §1, §2
Collagen volume fraction of each section was determined using a computer image analyzing system (Leica Q-Win). Interstitial collagen density of heart sections was evaluated in the left ventricle (LV) subepicardial myocardium regions. Ten fields from each region (magnification ×20) were randomly selected for analyses and the area stained was calculated as percentage of the total area within a field.
Perivascular collagen was expressed as ratio of the area of the collagen surrounding the vessel divided to the area of the coronary arteries media in order to correct for differences in vessel size (magnification ×20 or ×40). We calculated an average value for interstitial and perivascular fibrosis or each animal. […]

[4] = system: collagens I and III and BNP mRNA; assay: Left ventricular gene expression levels of collagens I and III and BNP (real-time PCR) in SHHF rats; format: in vivo; details: SHHF rat left ventricle, 4 weeks treatment; FIG. 13
Procedure: Left ventricular gene expression levels of collagens I and III and BNP were determined as follows. mRNA expression analyses were performed as follows:
Heart samples (i.e. basal side of the hearts) were shock frozen in liquid nitrogen for RNA. Total RNA from the LV was isolated using the Ultraspec II kit (Bioteckx), according to the instructions of the manufacturer. After integrity checking and determining RNA concentrations with the nanodrop procedure, the RNA concentrations were adjusted to 100 ng/μl For first strand cDNA synthesis, 100 ng heat denatured RNA and 200 pmol random hexamer primers (Pharmacia, Uppsala Sweden) were transferred to a Ready-To-Go first strand bead (Pharmacia, Uppsala Sweden) tube and the volume adjusted to 33 μl.
The reaction (1 hour at 37° C.) was stopped by heat inactivating (2 minutes at 94° C.) the transcriptase and samples were cooled to 4° C. For conducting the real-time PCR, […] of the cDNA templates (100× diluted) were added to SYBR green master mix (Eurogentec) and primers (15 μM final concentration each) yielding a total volume of […], following the instructions of the Eurogentec.
PCR-primers (Sigma Genosys) were selected based on published primers/cDNA sequences and had the following sequences (5′→3′): […]
yielding products with fragment lengths of 253, 147 and 86 base pairs for PGK 1 (phosphoglycerate kinase 1), BNP (brain natriuretic peptide) and collagens I and -III respectively.
Samples were denatured and incubated for 40 cycles at 60° C. (120 seconds; annealing and synthesis) and 95° C. (15 seconds), during which fluorescence was continuously monitored (Biorad thermocycler).
Based on the linear part of the curves, initial gene concentrations were derived by comparing signals with standard curves. Validity of the procedure was checked by constructing melting curves for every sample.
Calculated gene expression levels were standardized for the house keeping gene PGK1 and were normalized versus RNA obtained from untreated control animals. Data are therefore expressed as arbitrary units (means±SEM).

[5] = system: spontaneous hypertensive heart failure (SHHF) rats; assay: Left ventricular pressures, contractility, relaxation, arterial pressure and heart rate in SHHF rat model of CHF; format: in vivo
Procedure: as §1
The rats underwent a surgical procedure to install pericardial and intravenous catheters and minipumps according to the procedure of Example 1.
Animals were randomly assigned to treatment groups (n=9 per group). Total treatment time was 4 weeks for all animals. The groups were as follows: • (1) corticosterone high dose IPC (60 micrograms/day) • (2) corticosterone low dose IPC (6 micrograms/day) • (3) corticosterone high dose IV (60 micrograms/day) • (4) corticosterone low dose IV (6 micrograms/day) • (5) vehicle
Where IPC—intrapericardial dosing, and IV=intravenous dosing.
During treatment, Group 5 (vehicle) rats were continuously infused with vehicle (40% polyethylene glycol in water; 60 μl/day) via both catheters. Experimental groups obtained continuous infusions as follows: • Group (1)—a high dose (60 ug/day) of corticosterone hemisuccinate intrapericardially and vehicle intravenously; • Group (2)—a low dose (6 ug/day) of corticosterone hemisuccinate intrapericardially and vehicle intravenously; • Group (3)—a high dose (60 ug/day) of corticosterone hemisuccinate intravenously and vehicle intrapericardially; and • Group (4)—a low dose (6 ug/day) of corticosterone hemisuccinate intravenously and vehicle intrapericardially. • Corticosterone hemisuccinate was purchased from Sigma (St Louis, Mo.)
Left ventricular pressures, contractility and relaxation were evaluated at the end of the study as described in B J Janssen et al., “Effects of anesthetics on systemic hemodynamics in mice.” Am J Physiol Heart Circ Physiol 287:H1618-1624 (2004). For this purpose rats were anaesthetized with pentobarbital (50 mg/kg i.p., Sigma). A high-fidelity catheter tip micromanometer (Mikro-tip 1.4F; SPR-671, Millar Instruments, Houston, Tex., USA) was inserted into the left ventricular cavity through the right carotid artery. Before the tip was inserted into the left ventricle, mean arterial pressures and heart rates were briefly recorded in the carotid artery. Left ventricular pressure was measured and sampled at a rate of 2 kHz under an I.V. ramp infusion of dobutamine up to 5 ng/gBW/min (Sigma) using a microinjection pump (model 200 Series, KD Scientific, Boston, Mass., USA). Maximal positive (+dp/dt/p) and negative (−dp/dt/p) pressure development were determined. At the end of the experiment blood and organs were harvested, weighed and rapidly processed and frozen for future analyses.

Which “echocardiographic examinations (left ventricular dimensions or performance parameters)” value [1] does the source give for `C[C@]12C[C@H](O)[C@H]3[C@@H](CCC4=CC(=O)CC[C@@]43C)[C@@H]1CC[C@@H]2C(=O)CO` [corticosterone] here?
The value was “no differences between treatments”.

And the “corticosterone concentration in rat heart tissue” value [2]?
Its value is “higher concentration”.

What about the “left ventricular epicardial collagen area” value [3] of the same compound?
Its value is “improved; also recorded: positively affects”.

And the “mRNA expression of B-type natriuretic peptide (BNP)” value [4]?
Its value is “reduces”.

And the “mRNA expression of Type I collagen” value [4]?
Its value is “reduces”.

What about the “mRNA expression of Type III collagen” value [4] of the same compound?
The value was “reduces”.

What about the cardiac filling rate ([5]; 6 or 60 micrograms/day IPC or IV, 4 weeks) of the same compound?
Its cardiac filling rate is “improved”.

What about the “left ventricular end diastolic pressure” value ([5]; 6 or 60 micrograms/day IPC or IV, 4 weeks, FIG. 8) of the same compound?
The value was “improved; also recorded: positively affects”.

And the left ventricular contractility ([5]; 6 or 60 micrograms/day IPC or IV, 4 weeks, FIG. 10)?
The left ventricular contractility was “improved; also recorded: positively affects”.

And the left ventricular relaxation ([5]; 6 or 60 micrograms/day IPC or IV, 4 weeks, FIG. 11)?
The left ventricular relaxation was “positively affects”.

What about the heart rate ([5]; right carotid artery, 4 weeks treatment, FIG. 5) of the same compound?
Its heart rate is “no differences between treatments; also recorded: not affecting”.

What about the “mean arterial pressure (MAP) / blood pressure” value ([5]; right carotid artery, 4 weeks treatment, FIG. 6) of the same compound?
Its value is “no differences between treatments; also recorded: not affecting”.

From patent US20100113406A1, “USE OF GLUCOCORTICOIDS FOR TREATMENT OF CONGESTIVE HEART FAILURE” (priority 2007, published 2010)
